Experimental findings from patent US20110319392A1, “Thiazole Sulfonamide And Oxazole Sulfonamide Kinase Inhibitors” (priority 2009, published 2011) are described below.

Assay [1] concerns the target B-Raf (Homo sapiens, UniProt P15056). Description: B-Raf Accelerated MEK ATPase assay (BRAMA), Method A or B. It is filed as biochemical. To be noted: Method B: final MEK 150 nM, single end point read. The method in brief:
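Activated Raf plus non-phosphorylated MEK drives MEK-mediated ATP hydrolysis; ADP formation coupled via pyruvate kinase/lactate dehydrogenase to NADH oxidation. Method A read kinetically; Method B used 150 nM final MEK and a single end-point read.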

The subject of assay [2] is BT474 tumor cells. The assay is described as follows: Cell growth inhibition assay (CellTiter-Glo), BT474. It is filed as cell-based, Human. The conditions noted are these: Homo sapiens, BT-474, 72 h, 3 days incubation. As to the method: Human breast tumor cells (BT474) were cultured in RPMI (Mediatech […]), containing 10% FBS (JRH Biosciences 12176) and 1% penicillin-streptomycin (Invitrogen 15140). Human head and neck tumor cells (HN5) were cultured in high glucose DMEM (Mediatech 50-013-PB) containing 10% FBS and 1% penicillin-streptomycin. Human colon tumor cells (Colo205) were cultured in RPMI (Mediatech 50-020-PB) containing 10% FBS and 1% penicillin-streptomycin. Human melanoma cancer cells (SK-MEL-28) were cultured in EMEM with nonessential amino acids (Mediatech 50-011-PB) containing 10% FBS, 1% sodium pyruvate (JT Baker 3354-04), and 1% penicillin-streptomycin. Human melanoma cancer cells (A375P F11s) were cultured in RPMI (Mediatech 50-020-PB) containing 10% FBS, 1% sodium pyruvate, and 1% penicillin-streptomycin. Human colon cancer cells (HT-29) were cultured in high glucose DMEM (Mediatech 50-013-PB) containing 10% FBS and 1% penicillin-streptomycin. Human melanoma cancer cells (SK-MEL-3) were cultured in McCoy's 5A (50-025-PB) containing 15% FBS, and 1% penicillin-streptomycin. All cell lines were maintained at 37° C. in a humidified 5% CO2, 95% air incubator. Cells were harvested using trypsin/EDTA (Invitrogen 25200), counted using a haemocytometer, and plated. For 96-well assays (using white full-area NUNC plates cat. #136102), cells were plated in 105 μL at the following densities (cells/well): HNS, 500; Colo 205, 500; SK-MEL-28, 500; A375P F11s, 500; HT-29, 500; SK-MEL-3, 500; and BT474, 3000. For 384-well assays (white full-area NUNC plates, cat. #781080), cells were plated in 48 μL at the following densities (cells/well): HNS, 500; Colo205, 500; SK-MEL-28, 500; A375P F11s, 500; HT-29, 500; SK-MEL-3, 500; and BT474, 2000.
The next day, compounds were diluted as follow: For 96-well assays, 13.5 μL of compound in DMSO were diluted using nine (9) serial 1:3 dilutions of 4.5 μL in 9 of DMSO. Medium (270 μL/well of RPMI with 10% FBS and 1% penicillin-streptomycin) was added to the plates. Aliquots (7 μL) were added to cells in the final assay giving a final DMSO concentration of 0.2%. For 384-well assays, 15 μL of compound in DMSO were diluted using nine (9) serial 1:3 dilutions of 5 μL in 10 μL of DMSO, followed by a further dilution of 5 μL of compound with 95 μL of medium, of which 2 μL were added to cells in the final assay giving a final DMSO concentration of 0.2%. Cells were incubated at 37° C., 5% CO2 for 3 days.
Total ATP was measured (as a surrogate estimate of cell number) using CellTiter-Glo® reagent (Promega G7571). Briefly, plates were removed from the incubator and allowed to equilibrate to room temperature for 30 minutes. CellTiter-Glo® (25 μL or 55 μL for 384-well or 96-well assays, respectively) reagent was added to each well and plates were shaken on an orbital plate shaker for 2 minutes. Plates were incubated without shaking for a further 30 minutes and read on an LJL Analyst GT reader in luminometer mode with an integration time of 0.5 seconds per well. Percent inhibition of cell growth was calculated relative to DMSO vehicle-treated control wells. Concentration of compound required to give 50% inhibition of vehicle-treated control cell growth (IC50) was interpolated using a 4-parameter fit for determining IC50 using the following equation: Y=A +((B−A)/(1+((C/X)̂D))) where […].

Each structure is given as a SMILES string. Where a name gives a salt, the structure may show the parent alone. A value given as a limit tells only on which side of the number the result lay.

B-Raf, sequence (P15056 whole entry): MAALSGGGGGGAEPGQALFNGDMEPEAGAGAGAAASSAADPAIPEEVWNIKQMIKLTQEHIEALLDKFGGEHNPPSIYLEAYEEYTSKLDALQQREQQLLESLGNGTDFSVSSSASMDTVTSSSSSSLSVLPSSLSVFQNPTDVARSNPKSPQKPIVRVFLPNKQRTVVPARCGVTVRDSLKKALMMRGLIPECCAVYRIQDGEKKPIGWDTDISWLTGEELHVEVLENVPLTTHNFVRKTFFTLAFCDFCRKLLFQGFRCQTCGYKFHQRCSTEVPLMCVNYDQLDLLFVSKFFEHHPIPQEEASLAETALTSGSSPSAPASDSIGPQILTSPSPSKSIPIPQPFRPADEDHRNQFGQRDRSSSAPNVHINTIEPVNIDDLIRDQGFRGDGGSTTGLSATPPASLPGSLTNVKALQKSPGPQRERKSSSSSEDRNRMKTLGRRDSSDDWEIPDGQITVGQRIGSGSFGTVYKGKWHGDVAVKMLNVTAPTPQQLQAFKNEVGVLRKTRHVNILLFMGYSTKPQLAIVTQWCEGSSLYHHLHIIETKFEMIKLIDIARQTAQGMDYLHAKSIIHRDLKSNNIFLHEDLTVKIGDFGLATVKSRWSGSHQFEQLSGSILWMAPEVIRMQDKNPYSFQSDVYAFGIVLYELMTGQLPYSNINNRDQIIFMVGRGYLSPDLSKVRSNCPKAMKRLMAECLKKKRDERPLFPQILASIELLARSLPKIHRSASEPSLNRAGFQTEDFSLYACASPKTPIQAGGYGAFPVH

As to `CCNc1nc(-c2cccc(NS(=O)(=O)c3c(F)cccc3F)c2)c(-c2ccnc(Nc3ccc(N4CCOCC4)nc3)n2)s1` [Example 152], the half-inhibitory concentration (IC50) in assay [1] is less than 0.1 µM; in assay [2], 0.1 to 1 µM.

Consider `Nc1nc(-c2cccc(NS(=O)(=O)c3c(F)cccc3F)c2)c(-c2ccnc(Nc3ccc(N4CCOCC4)nc3)n2)s1` [Example 62], for which the IC50 in assay [1] is less than 0.1 µM; in assay [2] it was greater than 1 µM.

With `CC(C)c1nc(-c2cccc(NS(=O)(=O)c3cccs3)c2)c(-c2ccnc(Nc3ccc(N4CCOCC4)nc3)n2)s1` [Example 51], the IC50 in assay [1] was less than 0.1 µM; in assay [2], greater than 1 µM.

Consider `CC(C)c1nc(-c2cc(F)c(F)c(NS(=O)(=O)c3cccc(F)c3)c2)c(-c2ccnc(Nc3ccc(N4CCN(CCF)CC4)c(F)c3)n2)s1` [Example 101], for which the figures for the half-maximal inhibitory concentration (IC50) in assay [1] and in assay [2] were less than 0.1 µM and greater than 1 µM, respectively.

On to `CC(C)c1nc(-c2cccc(NS(=O)(=O)c3c(F)cccc3F)c2)c(-c2ccnc(Nc3ccc(OC4CCN(CCS(C)(=O)=O)CC4)c(F)c3)n2)s1` [Example 13, 2,6-Difluoro-N-{3-[5-(2-{[3-fluoro-4-({1-[2-(methylsulfonyl)ethyl]-4-piperidinyl}oxy)phenyl]amino}-4-pyrimidinyl)-2-(1-methylethyl)-1,3-thiazol-4-yl]phenyl}benzenesulfonamide hydrochloride], for which the concentration for half-maximal inhibition (IC50) in assay [1] is less than 0.1 µM; in assay [2] it was greater than 1 µM.

In the case of `COc1cc(N2CCN(CCS(C)(=O)=O)CC2)c(C)cc1Nc1nccc(-c2sc(C(C)C)nc2-c2cccc(NS(=O)(=O)c3c(F)cccc3F)c2)n1` [Example 19], the 50% inhibitory concentration (IC50) is less than 0.1 µM in assay [1] and greater than 1 µM in assay [2].

On to `COc1ccc(S(C)(=O)=O)cc1Nc1nccc(-c2sc(N3CCOCC3)nc2-c2cccc(NS(=O)(=O)c3c(F)cccc3F)c2F)n1` [Example 157], for which the half-maximal inhibitory concentration (IC50) was less than 0.1 µM in assay [1] and greater than 1 µM in assay [2].

With `CC(C)c1nc(-c2ccc(F)c(NS(=O)(=O)c3c(F)cccc3F)c2)c(-c2ccnc(Nc3ccncc3)n2)s1` [Example 102], the values for the IC50 in assay [1] and in assay [2] were less than 0.1 µM and greater than 1 µM, respectively.

Turning to `CC(C)c1nc(-c2cccc(NS(=O)(=O)c3c(F)cccc3F)c2F)c(-c2ccnc(Nc3cnc(N4CCOCC4)c(F)c3)n2)s1` [Example 30, 2,6-Difluoro-N-{2-fluoro-3-[5-(2-{[5-fluoro-6-(4-morpholinyl)-3-pyridinyl]amino}-4-pyrimidinyl)-2-(1-methylethyl)-1,3-thiazol-4-yl]phenyl}benzenesulfonamide], the values for the IC50 in assay [1] and in assay [2] were less than 0.1 µM and greater than 1 µM, respectively.

Turning to `CS(=O)(=O)c1cccc(Nc2nccc(-c3sc(N4CCOCC4)nc3-c3cccc(NS(=O)(=O)c4c(F)cccc4F)c3F)n2)c1` [Example 130], the 50% inhibitory concentration (IC50) was less than 0.1 µM in assay [1] and greater than 1 µM in assay [2].

`CC(=O)N1CCN(c2ccc(Nc3nccc(-c4sc(C(C)C)nc4-c4cccc(NS(=O)(=O)c5ccc(F)cc5)c4)n3)cn2)CC1` [Example 10, N-{3-[5-(2-{[6-(4-Acetyl-1-piperazinyl)-3-pyridinyl]amino}-4-pyrimidinyl)-2-(1-methylethyl)-1,3-thiazol-4-yl]phenyl}-4-fluorobenzenesulfonamide]: the IC50 in assay [1] is less than 0.1 µM; in assay [2], greater than 1 µM.

With `CC(C)c1nc(-c2cccc(NS(=O)(=O)c3c(F)cccc3F)c2F)c(-c2ccnc(Nc3ccc(N4CCN(CCF)CC4)c(F)c3)n2)s1` [Example 29, 2,6-Difluoro-N-{2-fluoro-3-[5-[2-({3-fluoro-4-[4-(2-fluoroethyl)-1-piperazinyl]phenyl}amino)-4-pyrimidinyl]-2-(1-methylethyl)-1,3-thiazol-4-yl]phenyl}benzenesulfonamide], the IC50 in assay [1] was less than 0.1 µM; in assay [2], greater than 1 µM.

With `CC(C)c1nc(-c2cccc(NS(=O)(=O)c3ccco3)c2)c(-c2ccnc(Nc3ccc(N4CCOCC4)nc3)n2)s1` [Example 53], the figures for the IC50 in assay [1] and in assay [2] were less than 0.1 µM and greater than 1 µM, respectively.

Consider `CC(C)c1nc(-c2ccc(F)c(NS(=O)(=O)c3c(F)cccc3F)c2)c(-c2ccnc(Nc3cccc(CCS(N)(=O)=O)c3)n2)s1` [Example 113], for which the values for the IC50 in assay [1] and in assay [2] were less than 0.1 µM and 0.1 to 1 µM, respectively.

For the compound `CCNc1nc(-c2ccc(F)c(NS(=O)(=O)c3c(F)cccc3F)c2)c(-c2ccnc(Nc3ccc(N4CCOCC4)nc3)n2)s1` [Example 166], the half-maximal inhibitory concentration (IC50) in assay [1] was less than 0.1 µM; in assay [2], greater than 1 µM.

In the case of `COc1ccc(Nc2nccc(-c3sc(C(C)C)nc3-c3cccc(NS(=O)(=O)c4c(F)cccc4F)c3)n2)cc1N(C)C` [Example 18, N-{3-[5-(2-{[3-(Dimethylamino)-4-(methyloxy)phenyl]amino}-4-pyrimidinyl)-2-(1-methylethyl)-1,3-thiazol-4-yl]phenyl}-2,6-difluorobenzenesulfonamide trifluoroacetate], the figures for the half-inhibitory concentration (IC50) in assay [1] and in assay [2] were less than 0.1 µM and greater than 1 µM, respectively.

For the compound `CCOc1ccc(Nc2nccc(-c3sc(N4CCCC4)nc3-c3cccc(NS(=O)(=O)c4c(F)cccc4F)c3)n2)cc1N1CCN(CCS(C)(=O)=O)CC1` [Example 109], the IC50 in assay [1] is less than 0.1 µM; in assay [2], 0.1 to 1 µM.

On to `COc1cc(N2CCN(CCS(C)(=O)=O)CC2)c(C)cc1Nc1nccc(-c2sc(C(C)(C)C)nc2-c2cccc(NS(=O)(=O)c3c(F)cccc3F)c2)n1` [Example 120], for which the concentration for half-maximal inhibition (IC50) is less than 0.1 µM in assay [1] and greater than 1 µM in assay [2].

Turning to `CN(C)c1nc(-c2ccc(F)c(NS(=O)(=O)c3c(F)cccc3F)c2)c(-c2ccnc(Nc3ccc(N4CCN(S(C)(=O)=O)CC4)nc3)n2)s1` [Example 112], the figures for the IC50 in assay [1] and in assay [2] were less than 0.1 µM and greater than 1 µM, respectively.

As for `CC(C)c1nc(-c2cncc(NS(=O)(=O)c3c(F)cccc3F)c2)c(-c2ccnc(Nc3ccc(N4CCOCC4)nc3)n2)s1` [Example 47], the IC50 in assay [1] was less than 0.1 µM; in assay [2] it was greater than 1 µM.

For the compound `CC(=O)N1CCN(c2ccc(Nc3nccc(-c4sc(C(C)C)nc4-c4cccc(NS(=O)(=O)c5cn(C)cn5)c4)n3)cn2)CC1` [Example 36], the values for the half-maximal inhibitory concentration (IC50) in assay [1] and in assay [2] were less than 0.1 µM and greater than 1 µM, respectively.

On to `COc1cc(N2CCC(N3CCN(CCS(C)(=O)=O)CC3)CC2)ccc1Nc1nccc(-c2sc(C(C)C)nc2-c2cccc(NS(=O)(=O)c3c(F)cccc3F)c2)n1` [Example 20, 2,6-Difluoro-N-{3-[2-(1-methylethyl)-5-(2-{[2-(methyloxy)-4-(4-{4-[2-(methylsulfonyl)ethyl]-1-piperazinyl}-1-piperidinyl)phenyl]amino}-4-pyrimidinyl)-1,3-thiazol-4-yl]phenyl}benzenesulfonamide], for which the IC50 in assay [1] was less than 0.1 µM; in assay [2], greater than 1 µM.

As to `COc1ccc(S(=O)(=O)Nc2cccc(-c3nc(C(C)C)sc3-c3ccnc(Nc4ccc(N5CCOCC5)nc4)n3)c2)cn1` [Example 49], the IC50 was less than 0.1 µM in assay [1] and greater than 1 µM in assay [2].

Consider `CC(=O)N1CCN(c2ccc(Nc3nccc(-c4sc(C(C)C)nc4-c4cccc(NS(=O)(=O)c5ccccc5F)c4)n3)cn2)CC1` [Example 12, N-{3-[5-(2-{[6-(4-Acetyl-1-piperazinyl)-3-pyridinyl]amino}-4-pyrimidinyl)-2-(1-methylethyl)-1,3-thiazol-4-yl]phenyl}-2-fluorobenzenesulfonamide], for which the IC50 in assay [1] was less than 0.1 µM; in assay [2], greater than 1 µM.
